Reference: ChEMBL document CHEMBL4308841, “Synthesis, in vitro antiproliferative activity, and kinase inhibitory effects of pyrazole-containing diarylureas and diarylamides” (Eur J Med Chem, 2018)

Columns and labels:
[1] = system: T47D; experiment: Growth inhibition of human T47D cells incubated for 48 hrs by sulforhodamine B assay; format: functional, cell-based
[2] = system: HOP-62; experiment: Growth inhibition of human HOP62 cells assessed as cell growth at 1 uM incubated for 48 hrs by sulforhodamine B assay relative to control; format: functional; conditions: HOP-62, 48 h, read-out: Activity
[3] = system: HOP-62; experiment: Growth inhibition of human HOP62 cells assessed as cell growth at 0.1 uM incubated for 48 hrs by sulforhodamine B assay relative to control; format: functional; conditions: HOP-62, 48 h, read-out: Activity
[4] = system: SK-MEL-2; experiment: Growth inhibition of human SK-MEL-2 cells assessed as cell growth at 1 uM incubated for 48 hrs by sulforhodamine B assay relative to control; format: functional; conditions: SK-MEL-2, 48 h, read-out: Activity
[5] = system: NCI-H460; experiment: Growth inhibition of human NCI-H460 cells assessed as cell growth at 100 uM incubated for 48 hrs by sulforhodamine B assay relative to control; format: functional; conditions: NCI-H460, 48 h, read-out: Activity
[6] = system: UACC-62; experiment: Growth inhibition of human UACC62 cells assessed as cell growth at 0.01 uM incubated for 48 hrs by sulforhodamine B assay relative to control; format: functional; conditions: UACC-62, 48 h, read-out: Activity
[7] = system: KM12; experiment: Growth inhibition of human KM12 cells assessed as cell growth at 1 uM incubated for 48 hrs by sulforhodamine B assay relative to control; format: functional; conditions: KM12, 48 h, read-out: Activity
[8] = system: OVCAR-4; experiment: Growth inhibition of human OVCAR4 cells incubated for 48 hrs by sulforhodamine B assay; format: functional, cell-based; conditions: OVCAR-4, 48 h
[9] = system: T47D; experiment: Growth inhibition of human T47D cells assessed as cell growth at 0.01 uM incubated for 48 hrs by sulforhodamine B assay relative to control; format: functional; conditions: read-out: Activity
[10] = system: SK-MEL-5; experiment: Growth inhibition of human SK-MEL-5 cells incubated for 48 hrs by sulforhodamine B assay; format: functional, cell-based; conditions: SK-MEL-5, 48 h
[11] = system: IGROV-1; experiment: Growth inhibition of human IGROV1 cells assessed as cell growth at 0.01 uM incubated for 48 hrs by sulforhodamine B assay relative to control; format: functional; conditions: IGROV-1, 48 h, read-out: Activity
[12] = system: M14; experiment: Growth inhibition of human M14 cells assessed as cell growth at 0.1 uM incubated for 48 hrs by sulforhodamine B assay relative to control; format: functional; conditions: M14, 48 h, read-out: Activity
[13] = system: M14; experiment: Growth inhibition of human M14 cells assessed as cell growth at 100 uM incubated for 48 hrs by sulforhodamine B assay relative to control; format: functional; conditions: M14, 48 h, read-out: Activity
[14] = system: PC-3; experiment: Growth inhibition of human PC3 cells assessed as cell growth at 1 uM incubated for 48 hrs by sulforhodamine B assay relative to control; format: functional; conditions: PC-3, 48 h, read-out: Activity
[15] = system: K562; experiment: Growth inhibition of human K562 cells incubated for 48 hrs by sulforhodamine B assay; format: functional, cell-based; conditions: K562, 48 h
[16] = system: RPMI-8226; experiment: Growth inhibition of human RPMI8226 cells assessed as cell growth at 0.01 uM incubated for 48 hrs by sulforhodamine B assay relative to control; format: functional; conditions: RPMI-8226, 48 h, read-out: Activity
[17] = system: OVCAR-4; experiment: Growth inhibition of human OVCAR4 cells assessed as cell growth at 1 uM incubated for 48 hrs by sulforhodamine B assay relative to control; format: functional; conditions: OVCAR-4, 48 h, read-out: Activity
[18] = system: U-251; experiment: Growth inhibition of human U251 cells assessed as cell growth at 100 uM incubated for 48 hrs by sulforhodamine B assay relative to control; format: functional; conditions: U-251, 48 h, read-out: Activity
[19] = system: HT-29; experiment: Growth inhibition of human HT-29 cells assessed as cell growth at 0.01 uM incubated for 48 hrs by sulforhodamine B assay relative to control; format: functional; conditions: HT-29, 48 h, read-out: Activity
[20] = system: SW-620; experiment: Growth inhibition of human SW620 cells assessed as cell growth at 0.01 uM incubated for 48 hrs by sulforhodamine B assay relative to control; format: functional; conditions: SW-620, 48 h, read-out: Activity
[21] = system: 786-0; experiment: Growth inhibition of human 786-0 cells assessed as cell growth at 100 uM incubated for 48 hrs by sulforhodamine B assay relative to control; format: functional; conditions: 786-0, 48 h, read-out: Activity
[22] = system: M14; experiment: Growth inhibition of human M14 cells assessed as cell growth at 0.01 uM incubated for 48 hrs by sulforhodamine B assay relative to control; format: functional; conditions: M14, 48 h, read-out: Activity
[23] = system: SF-295; experiment: Growth inhibition of human SF295 cells assessed as cell growth at 0.1 uM incubated for 48 hrs by sulforhodamine B assay relative to control; format: functional; conditions: SF-295, 48 h, read-out: Activity
[24] = system: NCI-H23; experiment: Growth inhibition of human NCI-H23 cells assessed as cell growth at 100 uM incubated for 48 hrs by sulforhodamine B assay relative to control; format: functional; conditions: NCI-H23, 48 h, read-out: Activity
[25] = system: BT-549; experiment: Growth inhibition of human BT549 cells assessed as cell growth at 0.1 uM incubated for 48 hrs by sulforhodamine B assay relative to control; format: functional; conditions: BT-549, 48 h, read-out: Activity
[26] = system: OVCAR-8; experiment: Growth inhibition of human OVCAR8 cells assessed as cell growth at 0.01 uM incubated for 48 hrs by sulforhodamine B assay relative to control; format: functional; conditions: OVCAR-8, 48 h, read-out: Activity
[27] = system: NCI-H23; experiment: Growth inhibition of human NCI-H23 cells assessed as cell growth at 0.1 uM incubated for 48 hrs by sulforhodamine B assay relative to control; format: functional; conditions: NCI-H23, 48 h, read-out: Activity
[28] = system: HCT-15; experiment: Growth inhibition of human HCT15 cells assessed as cell growth at 100 uM incubated for 48 hrs by sulforhodamine B assay relative to control; format: functional; conditions: HCT-15, 48 h, read-out: Activity
[29] = system: ACHN; experiment: Growth inhibition of human ACHN cells assessed as cell growth at 0.1 uM incubated for 48 hrs by sulforhodamine B assay relative to control; format: functional; conditions: read-out: Activity
[30] = system: A549; experiment: Growth inhibition of human A549/ATCC cells assessed as cell growth at 0.01 uM incubated for 48 hrs by sulforhodamine B assay relative to control; format: functional; conditions: A549, 48 h, read-out: Activity
[31] = system: MOLT-4; experiment: Growth inhibition of human MOLT4 cells assessed as cell growth at 100 uM incubated for 48 hrs by sulforhodamine B assay relative to control; format: functional; conditions: MOLT-4, 48 h, read-out: Activity
[32] = read-out: LC50 (the source's name)
[33] = read-out: pLC50 (the source's name) (converted)

COc1cc(Cl)cc(-c2nn(-c3cccc(NC(=O)Nc4cccc(C(F)(F)F)c4)c3)cc2-c2ccncc2)c1
GI50 ([1]; read-out: GI50): 1.23 µM | CC50 [1, 32]: > 100 µM | TGI ([1]; read-out: TGI): 59.9 µM | GI50 ([1]; read-out: pGI50 (converted)): 1.23 µM | CC50 [1, 33]: > 100 µM | TGI ([1]; read-out: pTGI (converted)): 6.92 µM | growth at 1 µM [2]: 85% | growth at 0.1 µM [3]: 97% | growth at 1 µM [4]: 85% | growth at 100 µM [5]: -48% | growth at 0.01 µM [6]: 96% | growth at 1 µM [7]: 38% | GI50 ([8]; read-out: GI50): 2.54 µM | CC50 [8, 32]: > 100 µM | TGI ([8]; read-out: TGI): 38.8 µM | GI50 ([8]; read-out: pGI50 (converted)): 2.51 µM | CC50 [8, 33]: > 100 µM | TGI ([8]; read-out: pTGI (converted)): 38.9 µM | growth at 0.01 µM [9]: 97% | GI50 ([10]; read-out: GI50): 1.43 µM | CC50 [10, 32]: 54.5 µM | TGI ([10]; read-out: TGI): 25.4 µM | GI50 ([10]; read-out: pGI50 (converted)): 1.48 µM | CC50 [10, 33]: 5.5 µM | TGI ([10]; read-out: pTGI (converted)): 2.82 µM | growth at 0.01 µM [11]: 106% | growth at 0.1 µM [12]: 93% | growth at 100 µM [13]: -78% | growth at 1 µM [14]: 27% | GI50 ([15]; read-out: GI50): 0.823 µM | LC50 ([15]; read-out: LC50): > 100 µM | TGI ([15]; read-out: TGI): 14.4 µM | GI50 ([15]; read-out: pGI50 (converted)): 0.832 µM | LC50 ([15]; read-out: pLC50 (converted)): > 100 µM | TGI ([15]; read-out: pTGI (converted)): 14.5 µM | growth at 0.01 µM [16]: 99% | growth at 1 µM [17]: 71% | growth at 100 µM [18]: -100% | growth at 0.01 µM [19]: 102% | growth at 0.01 µM [20]: 103% | growth at 100 µM [21]: -57% | growth at 0.01 µM [22]: 98% | growth at 0.1 µM [23]: 57% | growth at 100 µM [24]: -40% | growth at 0.1 µM [25]: 114% | growth at 0.01 µM [26]: 97% | growth at 0.1 µM [27]: 90% | growth at 100 µM [28]: -72% | growth at 0.1 µM [29]: 92% | growth at 0.01 µM [30]: 100% | growth at 100 µM [31]: -36%

O=C(Nc1cccc(-n2cc(-c3ccncc3)c(-c3cc(O)cc(Cl)c3)n2)c1)Nc1ccc(Cl)c(C(F)(F)F)c1
GI50 ([1]; read-out: GI50): 2.44 µM | CC50 [1, 32]: 91.5 µM | TGI ([1]; read-out: TGI): 92.7 µM | GI50 ([1]; read-out: pGI50 (converted)): 2.45 µM | CC50 [1, 33]: 91.2 µM | TGI ([1]; read-out: pTGI (converted)): 9.33 µM | growth at 1 µM [2]: 96% | growth at 0.1 µM [3]: 97% | growth at 1 µM [4]: 104% | growth at 100 µM [5]: -52% | growth at 0.01 µM [6]: 104% | growth at 1 µM [7]: 56% | GI50 ([8]; read-out: GI50): 3.21 µM | CC50 [8, 32]: > 100 µM | TGI ([8]; read-out: TGI): 92.3 µM | GI50 ([8]; read-out: pGI50 (converted)): 3.24 µM | CC50 [8, 33]: > 100 µM | TGI ([8]; read-out: pTGI (converted)): 9.33 µM | growth at 0.01 µM [9]: 91% | GI50 ([10]; read-out: GI50): 1.59 µM | CC50 [10, 32]: 51.5 µM | TGI ([10]; read-out: TGI): 32.3 µM | GI50 ([10]; read-out: pGI50 (converted)): 1.7 µM | CC50 [10, 33]: 6.17 µM | TGI ([10]; read-out: pTGI (converted)): 3.24 µM | growth at 0.01 µM [11]: 94% | growth at 0.1 µM [12]: 91% | growth at 100 µM [13]: -57% | growth at 1 µM [14]: 83% | GI50 ([15]; read-out: GI50): 2.59 µM | LC50 ([15]; read-out: LC50): > 100 µM | TGI ([15]; read-out: TGI): 11 µM | GI50 ([15]; read-out: pGI50 (converted)): 2.57 µM | LC50 ([15]; read-out: pLC50 (converted)): > 100 µM | TGI ([15]; read-out: pTGI (converted)): 12 µM | growth at 0.01 µM [16]: 101% | growth at 1 µM [17]: 105% | growth at 100 µM [18]: -84% | growth at 0.01 µM [19]: 98% | growth at 0.01 µM [20]: 97% | growth at 100 µM [21]: -50% | growth at 0.01 µM [22]: 97% | growth at 0.1 µM [23]: 93% | growth at 100 µM [24]: -55% | growth at 0.1 µM [25]: 95% | growth at 0.01 µM [26]: 102% | growth at 0.1 µM [27]: 91% | growth at 100 µM [28]: -57% | growth at 0.1 µM [29]: 93% | growth at 0.01 µM [30]: 101% | growth at 100 µM [31]: -39%
